Measured values: ChEMBL document CHEMBL1201862, “PubChem BioAssay data set” (2004)
Calls of active or inactive are those of the source.

Columns and labels:
Paired box protein Pax-8 = Paired box protein Pax-8 (Homo sapiens, UniProt Q06710); assay: PAX8 transcriptional activity inhibition in RMG-I – RMG-I cells, luciferase, cherry-pick, dose response (AID 687027); format: functional, cell-based;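 note: luciferase reporter driven by Pax8 target thyroperoxidase promoter measured by SteadyGlo luminescence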
Chain of Paired box protein Pax-8 (Q06710 whole entry): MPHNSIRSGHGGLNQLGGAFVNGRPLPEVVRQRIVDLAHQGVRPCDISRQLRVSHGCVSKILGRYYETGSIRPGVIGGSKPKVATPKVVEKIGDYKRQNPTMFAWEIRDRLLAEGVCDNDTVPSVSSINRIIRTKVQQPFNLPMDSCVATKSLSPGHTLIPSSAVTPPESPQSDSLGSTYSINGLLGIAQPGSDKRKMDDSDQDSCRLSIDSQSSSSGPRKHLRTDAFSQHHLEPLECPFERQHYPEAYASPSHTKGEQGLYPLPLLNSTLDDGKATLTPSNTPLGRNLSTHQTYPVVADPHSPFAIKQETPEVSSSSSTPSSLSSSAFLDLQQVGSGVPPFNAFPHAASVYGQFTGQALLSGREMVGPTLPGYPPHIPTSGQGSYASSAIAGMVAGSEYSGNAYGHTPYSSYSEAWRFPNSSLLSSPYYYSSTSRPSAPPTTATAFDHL

[1] = CMV-driven luciferase expression suppression in HEK293 – cell-based, luminescence, dry powder, counter-screen for Pax8 inhibitor project, dose response (AID 743020); format: functional
[2] = biological target: Disintegrin and metalloproteinase domain-containing protein 17 (Homo sapiens, UniProt P78536); assay: exosite inhibitors of ADAM17, dose response, biochemical (AID 743260)
Chain of Disintegrin and metalloproteinase domain-containing protein 17 (P78536 whole entry, the tested form may be a part): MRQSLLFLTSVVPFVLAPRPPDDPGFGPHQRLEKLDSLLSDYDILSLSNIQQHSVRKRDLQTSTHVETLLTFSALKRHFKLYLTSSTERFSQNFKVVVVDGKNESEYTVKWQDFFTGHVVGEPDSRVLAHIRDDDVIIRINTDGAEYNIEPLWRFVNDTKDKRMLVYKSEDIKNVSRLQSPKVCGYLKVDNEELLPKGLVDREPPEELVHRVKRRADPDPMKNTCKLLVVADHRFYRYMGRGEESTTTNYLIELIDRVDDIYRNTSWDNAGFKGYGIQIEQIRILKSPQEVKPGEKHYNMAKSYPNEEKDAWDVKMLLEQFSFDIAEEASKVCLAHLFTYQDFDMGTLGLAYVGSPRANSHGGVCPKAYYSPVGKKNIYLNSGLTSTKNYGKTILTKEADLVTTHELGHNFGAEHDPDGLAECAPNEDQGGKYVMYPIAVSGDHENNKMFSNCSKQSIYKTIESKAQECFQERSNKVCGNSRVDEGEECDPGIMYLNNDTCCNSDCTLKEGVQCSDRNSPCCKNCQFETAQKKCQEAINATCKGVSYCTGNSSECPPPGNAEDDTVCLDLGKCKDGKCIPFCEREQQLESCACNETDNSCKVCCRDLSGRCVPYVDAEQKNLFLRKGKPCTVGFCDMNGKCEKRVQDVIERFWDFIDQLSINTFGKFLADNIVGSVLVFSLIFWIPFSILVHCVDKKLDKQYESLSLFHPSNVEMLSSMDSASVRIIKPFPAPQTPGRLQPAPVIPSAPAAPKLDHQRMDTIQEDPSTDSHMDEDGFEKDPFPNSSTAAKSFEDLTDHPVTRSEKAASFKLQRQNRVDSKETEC

[3] = biological target: T1, Rac GTPase-activating protein 1 (Homo sapiens, UniProt Q9H0H5); assay: blockers of MgcRacGAP-driven Rac1 GTP hydrolysis – biochemical, ADP Hunter fluorescence, primary and confirmatory, confirmation (AID 624330); format: functional
T1 sequence (Q9H0H5 whole entry): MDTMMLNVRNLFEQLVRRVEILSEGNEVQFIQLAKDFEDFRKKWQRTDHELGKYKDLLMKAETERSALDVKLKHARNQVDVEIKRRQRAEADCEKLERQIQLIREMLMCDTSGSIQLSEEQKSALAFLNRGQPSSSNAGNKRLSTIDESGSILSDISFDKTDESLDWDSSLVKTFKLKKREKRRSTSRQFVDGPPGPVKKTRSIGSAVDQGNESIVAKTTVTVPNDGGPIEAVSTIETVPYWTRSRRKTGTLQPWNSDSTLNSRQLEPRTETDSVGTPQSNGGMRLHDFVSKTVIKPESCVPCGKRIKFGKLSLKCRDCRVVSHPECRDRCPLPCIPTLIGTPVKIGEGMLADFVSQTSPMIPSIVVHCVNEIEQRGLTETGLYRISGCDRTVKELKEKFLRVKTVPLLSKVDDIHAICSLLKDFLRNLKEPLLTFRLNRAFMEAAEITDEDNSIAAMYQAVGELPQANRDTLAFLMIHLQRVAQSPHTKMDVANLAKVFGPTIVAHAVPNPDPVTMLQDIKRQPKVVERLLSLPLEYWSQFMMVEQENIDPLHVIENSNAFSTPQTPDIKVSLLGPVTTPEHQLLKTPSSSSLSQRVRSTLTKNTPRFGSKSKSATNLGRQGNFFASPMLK

[4] = DRD fibroblast viability loss – cell-based, non-viral oncogenic, luminescence, dose response (AID 1934); format: functional; settings: Homo sapiens
[5] = HGIII-sPLA2 enzyme inhibition potency – biochemical, QFRET, IC50, dose response (AID 743457);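 note: green fluorescence rise as the enzyme cleaves BODIPY PC-A2 in liposomes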
[6] = NIH-3T3 fibroblast cytotoxicity, dose response, cytotoxicity control, cell-based, fluorescence, Alamar Blue, secondary assay (AID 2327); format: functional;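 note: NIH-3T3 mouse fibroblasts cultured with fluconazole at 8 µg/mL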
[7] = viability loss in HeLa cells – cytotoxicity control for MgcRacGAP inhibitor project, dose response (AID 624300); format: functional
Nonstructural protein 1 = Nonstructural protein 1 (Influenza A virus, UniProt Q194T2); format: functional, Influenza A virus (A/California/07/2009(H1N1))
Chain of Nonstructural protein 1 (Q194T2 whole entry): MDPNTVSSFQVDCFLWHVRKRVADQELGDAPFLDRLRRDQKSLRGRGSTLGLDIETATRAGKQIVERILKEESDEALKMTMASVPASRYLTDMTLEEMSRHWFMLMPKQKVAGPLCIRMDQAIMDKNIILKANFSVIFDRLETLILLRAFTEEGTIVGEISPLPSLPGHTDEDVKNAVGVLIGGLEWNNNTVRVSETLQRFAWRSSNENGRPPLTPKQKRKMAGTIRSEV

[8] = biological target: T2, Histone-lysine N-methyltransferase NSD2 (Homo sapiens, UniProt O96028); format: biochemical
T2 sequence (O96028 whole entry): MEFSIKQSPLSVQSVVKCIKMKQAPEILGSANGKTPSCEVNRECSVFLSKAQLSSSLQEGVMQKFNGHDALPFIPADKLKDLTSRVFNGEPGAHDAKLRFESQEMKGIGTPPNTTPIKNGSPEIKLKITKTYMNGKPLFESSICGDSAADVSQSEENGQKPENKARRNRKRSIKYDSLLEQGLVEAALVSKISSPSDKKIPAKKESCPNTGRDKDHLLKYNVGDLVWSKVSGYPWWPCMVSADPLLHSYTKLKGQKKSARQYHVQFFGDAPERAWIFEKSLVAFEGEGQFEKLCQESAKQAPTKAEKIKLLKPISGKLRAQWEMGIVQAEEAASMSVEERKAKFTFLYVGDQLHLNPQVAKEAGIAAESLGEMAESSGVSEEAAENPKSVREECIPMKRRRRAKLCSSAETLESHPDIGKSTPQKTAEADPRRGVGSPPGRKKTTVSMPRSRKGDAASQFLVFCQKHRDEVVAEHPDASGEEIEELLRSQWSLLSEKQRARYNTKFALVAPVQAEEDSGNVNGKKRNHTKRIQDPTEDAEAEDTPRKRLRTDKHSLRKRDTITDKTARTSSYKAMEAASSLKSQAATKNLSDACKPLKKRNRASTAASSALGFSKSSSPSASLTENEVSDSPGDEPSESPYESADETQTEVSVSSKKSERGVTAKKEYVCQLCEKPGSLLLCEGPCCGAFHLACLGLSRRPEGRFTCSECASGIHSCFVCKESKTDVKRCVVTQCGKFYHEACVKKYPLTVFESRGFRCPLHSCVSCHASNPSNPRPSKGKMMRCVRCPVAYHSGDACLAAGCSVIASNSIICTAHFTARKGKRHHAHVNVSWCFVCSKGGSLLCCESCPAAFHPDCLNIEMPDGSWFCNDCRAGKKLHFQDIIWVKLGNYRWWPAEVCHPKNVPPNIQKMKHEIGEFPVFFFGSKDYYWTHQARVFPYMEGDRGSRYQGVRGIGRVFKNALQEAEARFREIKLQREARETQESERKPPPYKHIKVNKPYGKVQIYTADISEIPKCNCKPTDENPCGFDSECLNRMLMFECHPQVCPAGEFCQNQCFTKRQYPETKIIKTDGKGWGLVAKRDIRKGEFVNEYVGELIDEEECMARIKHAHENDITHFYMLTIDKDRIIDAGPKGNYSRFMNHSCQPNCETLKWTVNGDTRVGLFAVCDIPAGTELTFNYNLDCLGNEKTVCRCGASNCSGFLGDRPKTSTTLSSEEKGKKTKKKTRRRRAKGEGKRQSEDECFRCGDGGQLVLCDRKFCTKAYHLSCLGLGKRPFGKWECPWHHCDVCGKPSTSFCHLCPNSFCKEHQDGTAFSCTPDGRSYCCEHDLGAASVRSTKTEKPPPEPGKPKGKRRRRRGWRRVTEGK

BJ [9] = assay: BJ-TERT fibroblast viability loss – cell-based, RAS-independent, luminescence, dose response (AID 1933); format: functional; settings: Homo sapiens
BJ [10] = assay: cells; format: functional, cell-based; settings: Homo sapiens
[11] = fluconazole-exposed Candida albicans growth modulators – fluorescence, retest, confirmation (AID 2467); format: functional, cell-based
BJ [12] = assay: BJ-TERT-LT-ST fibroblast viability loss – cell-based, RAS-independent, luminescence, dose response (AID 1935); format: functional; settings: Homo sapiens;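 note: BJ fibroblasts immortalized with TERT plus LT and ST oncogenes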
[13] = Fluorescence-based cell-based high throughput dose response assay for inhibitors of the interaction of nucleotide-binding oligomerization domain containing 2 (NOD2) and the receptor-interacting serine-threonine kinase 2 (RIPK2).; format: functional; settings: Homo sapiens
[14] = viability loss in HEK293T cells – cell-based, cherry-picks, cytotoxicity control for HIV Vif inhibitor project, dose response (AID 652208); format: functional
[15] = viability loss in THP-1 monocytes – THP-1 cells, cytotoxicity control for Vif-APOBEC3G degradation inhibitor project, dose response (AID 1117359); format: functional; settings: THP-1
[16] = human cervical cancer cell viability loss – 24 h, plate reader, dry powder, cytotoxicity control, dose response (AID 686928); format: functional, cell-based; settings: HeLa
Fatty acid synthase = Fatty acid synthase (Homo sapiens, UniProt P49327); assay: inhibition of human FAS-TE enzyme activity – biochemical, endpoint fluorescence intensity, powder samples, SAR follow-up (AID 652164); format: functional
Chain of Fatty acid synthase (P49327 whole entry): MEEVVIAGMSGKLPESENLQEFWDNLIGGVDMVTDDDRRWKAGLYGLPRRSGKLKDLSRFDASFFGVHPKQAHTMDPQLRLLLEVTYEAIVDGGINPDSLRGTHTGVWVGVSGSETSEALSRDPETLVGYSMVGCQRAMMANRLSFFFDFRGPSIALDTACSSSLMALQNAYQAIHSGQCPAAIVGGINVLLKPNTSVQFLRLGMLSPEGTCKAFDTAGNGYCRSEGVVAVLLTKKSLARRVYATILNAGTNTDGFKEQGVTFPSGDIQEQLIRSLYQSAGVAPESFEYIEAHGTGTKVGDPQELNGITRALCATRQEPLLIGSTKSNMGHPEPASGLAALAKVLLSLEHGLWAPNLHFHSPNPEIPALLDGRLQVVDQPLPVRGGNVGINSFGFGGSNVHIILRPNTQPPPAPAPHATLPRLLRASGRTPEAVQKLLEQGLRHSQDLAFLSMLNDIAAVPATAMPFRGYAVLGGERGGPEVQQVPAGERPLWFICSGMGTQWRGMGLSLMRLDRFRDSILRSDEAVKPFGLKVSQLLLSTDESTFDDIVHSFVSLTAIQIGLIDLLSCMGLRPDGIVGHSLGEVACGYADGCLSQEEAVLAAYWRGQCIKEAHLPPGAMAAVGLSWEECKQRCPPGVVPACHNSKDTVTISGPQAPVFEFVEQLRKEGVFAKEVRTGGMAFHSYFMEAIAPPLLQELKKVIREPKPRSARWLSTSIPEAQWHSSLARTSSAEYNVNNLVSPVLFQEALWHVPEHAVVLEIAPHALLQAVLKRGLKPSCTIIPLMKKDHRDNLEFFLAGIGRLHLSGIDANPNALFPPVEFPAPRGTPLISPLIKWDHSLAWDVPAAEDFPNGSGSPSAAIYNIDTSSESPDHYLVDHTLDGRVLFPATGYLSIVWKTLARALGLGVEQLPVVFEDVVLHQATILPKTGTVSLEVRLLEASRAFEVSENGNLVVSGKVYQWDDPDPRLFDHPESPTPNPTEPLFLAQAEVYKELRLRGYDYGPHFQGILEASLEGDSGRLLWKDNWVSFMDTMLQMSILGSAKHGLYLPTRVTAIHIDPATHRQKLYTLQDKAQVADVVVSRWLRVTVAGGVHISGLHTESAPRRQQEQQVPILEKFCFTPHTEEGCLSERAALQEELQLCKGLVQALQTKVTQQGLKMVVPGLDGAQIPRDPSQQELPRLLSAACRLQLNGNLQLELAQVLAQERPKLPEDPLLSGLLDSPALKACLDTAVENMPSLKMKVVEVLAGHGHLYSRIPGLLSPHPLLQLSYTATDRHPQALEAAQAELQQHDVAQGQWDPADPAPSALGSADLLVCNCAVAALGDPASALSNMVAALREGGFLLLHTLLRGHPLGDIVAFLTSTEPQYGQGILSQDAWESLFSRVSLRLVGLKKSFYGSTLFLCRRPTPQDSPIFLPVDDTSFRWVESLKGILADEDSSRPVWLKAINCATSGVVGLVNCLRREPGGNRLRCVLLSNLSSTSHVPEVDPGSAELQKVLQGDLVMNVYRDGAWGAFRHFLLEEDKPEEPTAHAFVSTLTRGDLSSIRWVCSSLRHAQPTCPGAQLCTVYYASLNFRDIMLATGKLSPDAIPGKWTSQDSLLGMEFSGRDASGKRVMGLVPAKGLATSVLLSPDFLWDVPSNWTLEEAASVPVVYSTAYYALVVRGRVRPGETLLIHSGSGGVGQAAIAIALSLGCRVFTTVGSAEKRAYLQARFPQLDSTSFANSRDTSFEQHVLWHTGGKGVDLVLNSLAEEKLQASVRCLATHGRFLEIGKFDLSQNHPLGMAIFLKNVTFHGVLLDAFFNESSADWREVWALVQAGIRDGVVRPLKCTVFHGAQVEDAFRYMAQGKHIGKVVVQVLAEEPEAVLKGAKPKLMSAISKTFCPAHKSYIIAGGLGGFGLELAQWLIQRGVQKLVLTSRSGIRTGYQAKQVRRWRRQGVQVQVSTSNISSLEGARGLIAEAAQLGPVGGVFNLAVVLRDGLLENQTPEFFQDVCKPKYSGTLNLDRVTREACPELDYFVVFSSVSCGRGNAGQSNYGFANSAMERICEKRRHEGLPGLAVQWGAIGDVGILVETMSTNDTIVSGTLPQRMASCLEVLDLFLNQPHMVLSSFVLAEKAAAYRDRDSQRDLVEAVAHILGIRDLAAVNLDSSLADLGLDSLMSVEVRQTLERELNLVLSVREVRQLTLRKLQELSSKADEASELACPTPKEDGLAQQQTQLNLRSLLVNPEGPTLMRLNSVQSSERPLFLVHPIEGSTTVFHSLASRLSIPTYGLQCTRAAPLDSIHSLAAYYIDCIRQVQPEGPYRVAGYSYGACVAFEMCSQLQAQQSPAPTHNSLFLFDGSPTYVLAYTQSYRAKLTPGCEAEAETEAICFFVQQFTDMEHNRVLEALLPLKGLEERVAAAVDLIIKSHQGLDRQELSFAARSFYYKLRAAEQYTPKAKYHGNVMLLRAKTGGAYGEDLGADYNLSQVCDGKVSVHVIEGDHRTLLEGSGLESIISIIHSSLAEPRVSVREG

Protein Wnt-3a = Protein Wnt-3a (Mus musculus, UniProt P27467); assay: SAR analysis of small molecule antagonists of Gli-SUFU in a Wnt3a luminescent reporter assay.; format: functional
Chain of Protein Wnt-3a (P27467 whole entry): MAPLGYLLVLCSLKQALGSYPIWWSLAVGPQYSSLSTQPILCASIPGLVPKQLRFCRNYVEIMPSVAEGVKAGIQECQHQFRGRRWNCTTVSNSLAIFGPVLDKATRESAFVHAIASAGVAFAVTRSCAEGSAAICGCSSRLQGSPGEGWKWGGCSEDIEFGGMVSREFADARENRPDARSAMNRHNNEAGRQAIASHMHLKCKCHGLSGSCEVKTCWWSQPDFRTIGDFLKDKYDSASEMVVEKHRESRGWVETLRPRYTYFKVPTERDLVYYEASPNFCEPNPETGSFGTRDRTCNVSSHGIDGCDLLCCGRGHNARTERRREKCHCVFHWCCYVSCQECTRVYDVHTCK

[17] = inhibition of bursicon-driven LGR2 cAMP signaling – cell-based, HEK293, CRE-luciferase reporter, cherry pick, dose response (AID 743342); format: functional
[18] = A549 cell cytotoxicity, dose response, cytotoxicity control, plate reader, cherry-pick, antagonist series (AID 743412); format: functional, cell-based
[19] = viability loss in HEK293 cells – cell-based, plate reader, cherry-picked samples, cytotoxicity control, dose response (AID 743446); format: functional
[20] = toxicity toward HepG2 liver cells – cell-based, plate reader, cherry-pick, antagonist series, cytotoxicity control, dose response (AID 743416); format: functional
[21] = blockade of melanocortin 4 receptor signaling – cell-based, plate reader, cherry pick, counter-screen for LGR2 antagonist project, dose response (AID 743444); format: functional;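 note: transfected HEK 293 cells stimulated with alpha-MSH peptide; potency of inhibitors of the alpha-MSH evoked signal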
[22] = viability loss in A549 lung cancer cells – cell-based, cherry-picks, […], cytotoxicity control, dose response (AID 1053119); format: functional
[23] = viability loss in HepG2 hepatoma cells – cell-based, cherry-picks, set 5, cytotoxicity control, dose response (AID 1053118); format: functional
[24] = viability loss in HEK293 kidney cells – cell-based, cherry-picks, set 5, cytotoxicity control, dose response (AID 1053117); format: functional
[25] = Cytotoxicity screening for potential Inhibitors of Bacterial Capsule Biogenesis (4).; format: functional
[26] = cytotoxicity in MITF-independent A375 cells – cell-based, CellTiter-Glo luminescence, dry powder, set 9, counter-screen for MITF modulator project, dose response (AID 651591); format: functional; settings: A-375
[27] = cytotoxicity in melanoma parental cells – cell-based, CellTiter-Glo, dry powder, set 6, MITF inhibitor project, dose response (AID 624429); format: functional; settings: SK-MEL-5
[28] = viability loss in MITF-independent A375 cells – cell-based, CellTiter-Glo luminescence, dry powder, set 6, counter-screen for MITF inhibitor project, dose response (AID 624488); format: functional; settings: A-375
[29] = viability loss in MITF-independent A375 cells – cell-based, CellTiter-Glo luminescence, dry powder, set 2, counter-screen for MITF inhibitor project, dose response (AID 624489); format: functional; settings: A-375;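 note: actives are compounds lowering A375 viability meaning general cytotoxicity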
[30] = inhibitors of TRPM1-promoter reporter in SK-MEL-5 – cell-based, luciferase, dry powder, set 9, MITF inhibitor project, dose response (AID 651588); format: functional
[31] = MITF Orthogonal Assay: SK-MEL-5 CTG Assay Measured in Cell-Based System Using Plate Reader - 2084-02_Inhibitor_Dose_DryPowder_Activity_Set5.; format: functional
[32] = MITF Orthogonal Assay: MALME3 CTG Assay Measured in Cell-Based System Using Plate Reader - 2084-04_Inhibitor_Dose_DryPowder_Activity_Set6.; format: functional; settings: MALME-3
[33] = cytotoxicity in MITF-independent A375 cells – cell-based, CellTiter-Glo luminescence, dry powder, set 4, counter-screen for MITF inhibitor project, dose response (AID 624364); format: functional; settings: A-375;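 note: A375 melanoma cells are MITF independent so this is a counter screen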
[34] = MITF Measured in Cell-Based System Using Plate Reader - 2084-01_Inhibitor_Dose_DryPowder_Activity_Set7.; format: functional
[35] = growth inhibition of MALME3 cells – cell-based, CellTiter-Glo luminescence, dry powder, set 5, orthogonal assay for MITF inhibitor project, dose response (AID 651584); format: functional; settings: MALME-3
[36] = growth inhibition of SK-MEL-5 melanoma cells – cell-based, CellTiter-Glo luminescence, dry powder, set 8, orthogonal assay for MITF inhibitor project, dose response (AID 651586); format: functional
[37] = viability loss in MITF-independent A375 cells – cell-based, CellTiter-Glo luminescence, dry powder, set 7, counter-screen for MITF inhibitor project, dose response (AID 624490); format: functional; settings: A-375
[38] = MITF Measured in Cell-Based System Using Plate Reader - 2084-01_Inhibitor_Dose_DryPowder_Activity_Set6.; format: functional

SMILES: CC(=O)c1cc(NC(=O)c2cccc(C(F)(F)F)c2)c(=O)oc1C
- AC50 (Paired box protein Pax-8): 15.8 µM (active)
- AC50 [1]: < 9 µM (active)

SMILES: CCOc1ccc(NC(=O)CC2SC(=O)N(c3ccccc3)C2=O)cc1 (stereo not drawn)
- IC50 [2]: 5.73 µM (active)

SMILES: CN(C)c1ccc(/C=C/C=C/c2sc3ccccc3[n+]2C)cc1.[O-][Cl+3]([O-])([O-])[O-]
- IC50 [3]: 62.6 µM (active)
- EC50 [4]: 4.85 µM (active)
- IC50 [5]: 41.6 µM (inactive)
- EC50 [6]: > 150 µM (inactive)
- CC50 [7]: 64 µM (active)
- IC50 (Nonstructural protein 1): 15 µM (active)
- AC50 [8]: 15.8 µM (active)
- EC50 (BJ [9]): 2.83 µM (inconclusive)
- EC50 (BJ [10]): 4.81 µM (active)
- EC50 [11]: 0.194 µM (active)
- EC50 (BJ [12]): 29.2 µM (active)

SMILES: C=CC(=O)N1C/C(=C/c2ccc(F)cc2)C(=O)/C(=C\c2ccc(F)cc2)C1
- IC50 [13]: 3.71 µM (active)
- AC50 [14]: 1.4 µM (active)
- AC50 (Paired box protein Pax-8): 2.36 µM (active)
- CC50 [15]: 0.57 µM (active)

SMILES: CC(C)c1ccc2cc3c(NC(=O)c4ccco4)nn(C)c3nc2c1
- AC50 [16]: 91.9 µM (active)

SMILES: O=C(Nc1nc(-c2ccc(S(=O)(=O)N3CCOCC3)cc2)cs1)C1CCCCC1
- IC50 (Fatty acid synthase): > 80 µM (inactive)

SMILES: O=C(Nc1cc(N2CCCCCC2)ncn1)c1ccccc1
- IC50 (Protein Wnt-3a): > 21.8 µM (inactive)

SMILES: C[C@H](CO)N1C[C@H](C)[C@H](CN(C)C(=O)Nc2ccc(F)cc2)OCCCC[C@H](C)Oc2ccc(NC(=O)Nc3ccccc3)cc2C1=O
- AC50 [17]: 6.77 µM (active)
- AC50 [18]: 37 µM (active)
- AC50 [19]: 40.6 µM (active)
- AC50 [20]: 35.2 µM (active)
- AC50 [21]: 44.4 µM (active)

SMILES: CO[C@@H]1CN(C)C(=O)c2ccc(NC(=O)c3ccc(-c4ccccc4)cc3)cc2OC[C@H](C)NC[C@H]1C
- AC50 [22]: 13.6 µM (active)
- AC50 [23]: 11.3 µM (active)
- AC50 [24]: 14 µM (active)

SMILES: COc1cc(NC(=O)c2ccc3nc(C)sc3c2)ccn1
- CC50 [25]: > 300 µM (inactive)

SMILES: O=C(NC1=C(Cl)C(=O)c2ccccc2C1=O)c1ccccc1
- AC50 [26]: 28.7 µM (active)
- AC50 [27]: 9.85 µM (active)
- AC50 [28]: 16.5 µM (active)
- AC50 [29]: 22.8 µM (active)
- AC50 [30]: 1.95 µM (active)
- AC50 [31]: 13.5 µM (active)
- AC50 [32]: 7.33 µM (active)
- AC50 [33]: 45.9 µM (active)
- AC50 [34]: 0.913 µM (active)
- AC50 [35]: 7.33 µM (active)
- AC50 [36]: 3.94 µM (active)
- AC50 [37]: 23.1 µM (active)
- AC50 [38]: 0.459 µM (active)
